Results from patent publication US20210053957A1, “HERBICIDAL COMPOUNDS” (SYNGENTA PARTICIPATIONS AG, priority 2018, published 2021).

Key:
Experiment in all cases: Post-emergence efficacy, glasshouse spray test
Assay type in all cases: in vivo
Setaia fabei (SETFA) = conditions: Application Rate 500 g/Ha, evaluated after 13 days; for pest or weed control at 500 g/ha: Setaria faberi, post-emergence, 312 h, read-out: Control of weed species after post-emergence application, SETFA (100=total damage to plant; 0=no damage to plant)
Outline: (§1)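 Scoring 13 days after treatment ran 0 = no damage to 100 = plant killed. Spray solution: formula (I) dissolved in acetone with IF50 emulsifier/solvent mix, diluted with 0.25% or 1% sodium lauryl ether sulphate plus 1% ammonium sulphate, applied to 14-day-old glasshouse plants (24/16 °C, 14 h light, 65% humidity).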

Lolium perenne (LOLPE) = conditions: Application Rate 500 g/Ha, evaluated after 13 days; for pest or weed control at 500 g/ha: Lolium perenne, post-emergence, 312 h, read-out: Control of weed species after post-emergence application, LOLPE (100=total damage to plant; 0=no damage to plant)
Outline: as §1

Eleusine indica (ELEIN) = conditions: Application Rate 500 g/Ha, evaluated after 13 days; for pest or weed control at 500 g/ha: Eleusine indica, post-emergence, 312 h, read-out: Control of weed species after post-emergence application, ELEIN (100=total damage to plant; 0=no damage to plant)
Outline: as §1

[1] = system: Chenopodium album (CHEAL); conditions: Application Rate 500 g/Ha, evaluated after 13 days; for pest or weed control at 500 g/ha: Chenopodium album, post-emergence, 312 h, read-out: Control of weed species after post-emergence application, CHEAL (100=total damage to plant; 0=no damage to plant)
Outline: as §1

[2] = system: Amaranthus palmeri (AMAPA); conditions: Application Rate 500 g/Ha, evaluated after 13 days; for pest or weed control at 500 g/ha: Amaranthus palmeri, post-emergence, 312 h, read-out: Control of weed species after post-emergence application, AMAPA (100=total damage to plant; 0=no damage to plant)
Outline: as §1

[3] = system: Echinochloa crus-galli (ECHCG); conditions: Application Rate 500 g/Ha, evaluated after 13 days; for pest or weed control at 500 g/ha: Echinochloa crus-galli, post-emergence, 312 h, read-out: Control of weed species after post-emergence application, ECHCG (100=total damage to plant; 0=no damage to plant)
Outline: as §1

[4] = system: Ipomoea hederacea (IPOHE); conditions: Application Rate 500 g/Ha, evaluated after 13 days; for pest or weed control at 500 g/ha: Ipomoea hederacea, post-emergence, 312 h, read-out: Control of weed species after post-emergence application, IPOHE (100=total damage to plant; 0=no damage to plant)
Outline: as §1

[5] = system: Digitaria sanguinalis (DIGSA); conditions: Application Rate 500 g/Ha, evaluated after 13 days; for pest or weed control at 500 g/ha: Digitaria sanguinalis, post-emergence, 312 h, read-out: Control of weed species after post-emergence application, DIGSA (100=total damage to plant; 0=no damage to plant)
Outline: as §1

[6] = system: Euphorbia heterophylla (EPHHL); conditions: Application Rate 500 g/Ha, evaluated after 13 days; for pest or weed control at 500 g/ha: Euphorbia heterophylla, post-emergence, 312 h, read-out: Control of weed species after post-emergence application, EPHHL (100=total damage to plant; 0=no damage to plant)
Outline: as §1

| Structure (SMILES) | Control of weed species after post-emergence application, SETFA (100=total damage to plant; 0=no damage to plant) (Setaia fabei (SETFA)) | Control of weed species after post-emergence application, LOLPE (100=total damage to plant; 0=no damage to plant) (Lolium perenne (LOLPE)) | Control of weed species after post-emergence application, ELEIN (100=total damage to plant; 0=no damage to plant) (Eleusine indica (ELEIN)) | Control of weed species after post-emergence application, CHEAL (100=total damage to plant; 0=no damage to plant) [1] | Control of weed species after post-emergence application, AMAPA (100=total damage to plant; 0=no damage to plant) [2] | Control of weed species after post-emergence application, ECHCG (100=total damage to plant; 0=no damage to plant) [3] | Control of weed species after post-emergence application, IPOHE (100=total damage to plant; 0=no damage to plant) [4] | Control of weed species after post-emergence application, DIGSA (100=total damage to plant; 0=no damage to plant) [5] | Control of weed species after post-emergence application, EPHHL (100=total damage to plant; 0=no damage to plant) [6] | pest or weed control at 500 g/ha (Setaia fabei (SETFA)) [%] | pest or weed control at 500 g/ha (Lolium perenne (LOLPE)) [%] | pest or weed control at 500 g/ha (Eleusine indica (ELEIN)) [%] | pest or weed control at 500 g/ha [1] [%] | pest or weed control at 500 g/ha [2] [%] | pest or weed control at 500 g/ha [3] [%] | pest or weed control at 500 g/ha [4] [%] | pest or weed control at 500 g/ha [5] [%] | pest or weed control at 500 g/ha [6] [%] |
| --- | --- | --- | --- | --- | --- | --- | --- | --- | --- | --- | --- | --- | --- | --- | --- | --- | --- | --- |
| COP(=O)(C[n+]1ccc(-c2ncco2)cn1)OC [Compound A94] | 90 | 40 | 100 | 90 | 90 | 90 | 90 | 100 | 100 |  |  |  |  |  |  |  |  |  |
| COC(=O)c1ccccc1C[n+]1ccc(-c2ncco2)cn1 [Compound A95] |  |  |  |  |  |  |  |  |  | 20 | 0 | 10 | 0 | 10 | 10 | 10 | 30 | 30 |
| O=C(O)CC[n+]1ccc(-c2ccno2)cn1 [Compound A96] |  |  |  |  |  |  |  |  |  | 80 | 70 | 80 | 90 | 100 | 30 | 80 | 40 | 100 |
| O=C(O)CC[n+]1ccc(-c2ccsn2)cn1 [Compound A97] |  |  |  |  |  |  |  |  |  | 40 | 30 | 70 | 80 | 100 | 60 | 20 | 50 | 50 |
| Cc1nnc(-c2cc[n+](CCC(=O)O)nc2)s1 [Compound A98] |  |  |  |  |  |  |  |  |  | 100 | 80 | 80 | 90 | 100 | 70 | 40 | 90 | 90 |
| O=C(O)CC[n+]1ccc(-c2cscn2)cn1 [Compound A100] |  |  |  |  |  |  |  |  |  | 30 | 10 | 30 | 0 | 0 | 30 | 20 | 40 | 30 |
| O=S(=O)([O-])N1CCCC1C[n+]1ccc(-c2ncco2)cn1 (stereo not drawn) [Compound A101] |  |  |  |  |  |  |  |  |  | 60 | 20 | 30 | 60 | 70 | 40 | 40 | 70 | 70 |
| O=P(O)(O)C[n+]1ccc(-c2ncco2)cn1 [Compound A102] | 60 | 10 | 30 | 90 | 100 | 70 | 60 | 60 | 90 |  |  |  |  |  |  |  |  |  |
| COP(=O)([O-])C[n+]1ccc(-c2ncco2)cn1 [Compound A103] |  |  |  |  |  |  |  |  |  | 80 | 30 | 60 | 40 | 70 | 70 | 40 | 90 | 70 |
| O=C(O)c1cccc(C[n+]2ccc(-c3ncco3)cn2)c1 [Compound A104] |  |  |  |  |  |  |  |  |  | 60 | 10 | 20 | 20 | 40 | 50 | 10 | 50 | 30 |
| O=S(=O)([O-])CC[n+]1ccc(-c2ccsn2)cn1 [Compound A105] |  |  |  |  |  |  |  |  |  | 90 | 70 | 90 | 90 | 90 | 80 | 70 | 100 | 100 |
| COP(=O)(O)CC[n+]1ccc(-c2ncco2)cn1 [Compound A106] |  |  |  |  |  |  |  |  |  | 50 | 0 | 20 | 0 | 10 | 40 | 20 | 80 | 60 |
| CC(C)(CC(=O)O)[n+]1ccc(-c2ncco2)cn1 [Compound A107] |  |  |  |  |  |  |  |  |  | 50 | 20 | 30 | 50 | 100 | 40 | 20 | 70 | 30 |
| COP(=O)(CC[n+]1ccc(-c2ncco2)cn1)OC.O=C([O-])C(F)(F)F [Compound A108] | 30 | 10 | 20 | 20 | 20 | 30 | 30 | 60 | 30 |  |  |  |  |  |  |  |  |  |
| N[C@@H](CC[n+]1ccc(-c2ncco2)cn1)C(=O)O [Compound A110] |  |  |  |  |  |  |  |  |  | 80 | 20 | 100 | 80 | 90 | 100 | 20 | 90 | 40 |
| O=C(O)CC[n+]1ccc(-c2nccs2)cn1 [Compound A111] |  |  |  |  |  |  |  |  |  | 100 | 90 | 100 | 90 | 90 | 100 | 70 | 100 | 90 |
| COC(=O)CC[n+]1ccc(-c2nccs2)cn1 [Compound A112] |  |  |  |  |  |  |  |  |  | 60 | 30 | 90 | 60 | 50 | 50 | 20 | 90 | 50 |
